Laboratory results published in US6822102B2, “Dihydrobenzopyrans, dihydrobenzothiopyrans, and tetrahydroquinolines for the treatment of COX-2 mediated disorders” (Pharmacia Corporation, priority 2000, dated 2004).
pIC50: −log10 of the molar value.

Assays:
COX-2 [1] = molecular target: T1, COX-2 (UniProt P35354); experiment: Assay for COX-2 activity (PGE2 ELISA, recombinant enzyme); type: biochemical, human or murine; conditions: without asterisk
T1 sequence (P35354 1-604): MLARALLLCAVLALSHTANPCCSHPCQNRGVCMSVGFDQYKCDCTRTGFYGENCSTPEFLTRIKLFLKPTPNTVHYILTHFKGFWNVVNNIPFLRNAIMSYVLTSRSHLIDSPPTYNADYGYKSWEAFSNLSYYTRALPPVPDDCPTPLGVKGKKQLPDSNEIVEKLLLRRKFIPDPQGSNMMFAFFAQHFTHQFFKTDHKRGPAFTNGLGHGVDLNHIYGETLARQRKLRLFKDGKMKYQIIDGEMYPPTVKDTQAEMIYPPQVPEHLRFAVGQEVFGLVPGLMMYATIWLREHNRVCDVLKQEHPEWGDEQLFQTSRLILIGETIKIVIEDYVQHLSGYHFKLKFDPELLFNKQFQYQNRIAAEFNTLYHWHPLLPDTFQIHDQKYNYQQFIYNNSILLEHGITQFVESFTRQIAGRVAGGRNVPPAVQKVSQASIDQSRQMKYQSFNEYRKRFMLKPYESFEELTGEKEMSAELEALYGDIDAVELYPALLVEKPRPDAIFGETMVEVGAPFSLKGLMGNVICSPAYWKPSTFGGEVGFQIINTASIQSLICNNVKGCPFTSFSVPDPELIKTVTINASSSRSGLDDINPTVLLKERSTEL
Protocol: (§1) The COX-2 inhibition activity of the compounds of this invention illustrated in the Examples was determined by the following methods.
(§2) a. Preparation of recombinant COX baculoviruses
(§3) Recombinant COX-1 and COX-2 were prepared as described by Gierse et al, [J. Biochem., 305, 479-84 (1995)]. A 2.0 kb fragment containing the coding region of either human or murine COX-1 or human or murine COX-2 was cloned into a BamHI site of the baculovirus transfer vector pVL1393 (Invitrogen) to generate the baculovirus transfer vectors for COX-1 and COX-2 in a manner similar to the method of D. R. O'Reilly et al (Baculovirus Expression Vectors: A Laboratory Manual (1992)). Recombinant baculoviruses were isolated by transfecting 4 μg of baculovirus transfer vector DNA into SF9 insect cells (2×10^8) along with 200 ng of linearized baculovirus plasmid DNA by the calcium phosphate method. See M. D. Summers and G. E. Smith, A Manual of Methods for Baculovirus Vectors and Insect Cell Culture Procedures, Texas Agric. Exp. Station Bull. 1555 (1987). Recombinant viruses were purified by three rounds of plaque purification and high titer (10^7-10^8 pfu/mL) stocks of virus were prepared. For large scale production, SF9 insect cells were infected in 10 liter fermentors (0.5×10^6/mL) with the recombinant baculovirus stock such that the multiplicity of infection was 0.1. After 72 hours the cells were centrifuged and the cell pellet homogenized in Tris/Sucrose (50 mM: 25%, pH 8.0) containing 1% 3-[(3-cholamidopropyl) dimethylammino]-1-propanesulfonate (CHAPS). The homogenate was centrifuged at 10,000×G for 30 minutes, and the resultant supernatant was stored at −80° C. before being assayed for COX activity.
(§4) b. Assay for COX-1 and COX-2 activity
(§5) COX activity was assayed as PGE2 formed/μg protein/time using an ELISA to detect the prostaglandin released. CHAPS-solubilized insect cell membranes containing the appropriate COX enzyme were incubated in a potassium phosphate buffer (50 mM, pH 8.0) containing epinephrine, phenol, and heme with the addition of arachidonic acid (10 μM). Compounds were pre-incubated with the enzyme for 10-20 minutes prior to the addition of arachidonic acid. Any reaction between the arachidonic acid and the enzyme was stopped after ten minutes at 37° C./room temperature by transferring 40 μl of reaction mix into 160 μl ELISA buffer and 25 μM indomethacin. The PGE2 formed was measured by standard ELISA technology (Cayman Chemical).

COX-1 [2] = molecular target: COX-1 (UniProt P23219); experiment: Assay for COX-1 activity (PGE2 ELISA, recombinant enzyme); type: biochemical, human or murine; conditions: without asterisk
Protocol: as §2, §3, §4, §5

COX-2 [3] = molecular target: T1, COX-2; experiment: Fast assay for COX-2 activity (PGE2 ELISA, recombinant enzyme); type: biochemical, human or murine; conditions: column marked *; footnote not given
Protocol: as §1, §2, §3
(§6) c. Fast assay for COX-1 and COX-2 activity
(§7) COX activity was assayed as PGE2 formed/μg protein/time using an ELISA to detect the prostaglandin released. CHAPS-solubilized insect cell membranes containing the appropriate COX enzyme were incubated in a potassium phosphate buffer (0.05 M Potassium phosphate, pH 7.5, 2 μM phenol, 1 μM heme, 300 μM epinephrine) with the addition of 20 μl of 100 μM arachidonic acid (10 μM). Compounds were pre-incubated with the enzyme for 10 minutes at 25° C. prior to the addition of arachidonic acid. Any reaction between the arachidonic acid and the enzyme was stopped after two minutes at 37° C./room temperature by transferring 40 μl of reaction mix into 160 μl ELISA buffer and 25 μM indomethacin. The PGE2 formed was measured by standard ELISA technology (Cayman Chemical).

COX-1 [4] = molecular target: COX-1 (UniProt P23219); experiment: Fast assay for COX-1 activity (PGE2 ELISA, recombinant enzyme); type: biochemical, human or murine; conditions: column marked *; footnote not given
Protocol: as §2, §3, §6, §7

Analgesia (Table I) = type: in vivo
carrageenan foot edema = experiment: Rat carrageenan foot pad edema test; type: in vivo; conditions: oral, male Sprague-Dawley rats, 3 h after carrageenan
Protocol: Rat Carrageenan Foot Pad Edema Test The carrageenan foot edema test was performed with materials, reagents and procedures essentially as described by Winter, et al., (Proc. Soc. Exp. Biol. Med., 111, 544 (1962)). Male Sprague-Dawley rats were selected in each group so that the average body weight was as close as possible. Rats were fasted with free access to water for over sixteen hours prior to the test. The rats were dosed orally (1 mL) with compounds suspended in vehicle containing 0.5% methylcellulose and 0.025% surfactant, or with vehicle alone. One hour later a subplantar injection of 0.1 mL of 1% solution of carrageenan/sterile 0.9% saline was administered and the volume of the injected foot was measured with a displacement plethysmometer connected to a pressure transducer with a digital indicator. Three hours after the injection of the carrageenan, the volume of the foot was again measured. The average foot swelling in a group of drug-treated animals was compared with that of a group of placebo-treated animals and the percentage inhibition of edema was determined (Otterness and Bliven, Laboratory Models for Testing NSAIDs, in Non-steroidal Anti-Inflammatory Drugs, (J. Lombardino, ed. 1985)).

| SMILES | melting point | pIC50 (COX-2 [1]) | pIC50 (COX-1 [2]) | pIC50 (COX-2 [3]) | pIC50 (COX-1 [4]) | ANALGESIA % Inhibition @ 30 mg/kg body weight (Analgesia (Table I)) | RAT PAW EDEMA % Inhibition @ 30 mg/kg body weight (carrageenan foot edema) |
| --- | --- | --- | --- | --- | --- | --- | --- |
| O=C(O)[C@@H]1Cc2cc(Cl)cc(Cl)c2S[C@@H]1C(F)(F)F (racemic) [Example 1, rel-(2R, 3S)-6,8-dichloro-3,4-dihydro-2-(trifluoromethyl)-2H-1-benzothiopyran-3-carbolic acid] | 165 to 170.2 °C |  |  |  |  |  |  |
| N#Cc1ccc2c(c1)C[C@@H](C(=O)O)[C@@H](C(F)(F)F)O2 (racemic) [Example 10, rel-(2R,3S)-6-cyano-3,4-dihydro-2-(trifluoromethyl)-2H-1-benzopyran-3-carboxylic acid] | 169 to 170.4 °C | 4.74 | < 4.00 | 5.32 | < 4.00 |  |  |
| O=C(O)[C@@H]1Cc2cc(OC(F)(F)F)ccc2O[C@@H]1C(F)(F)F (racemic) [Example 11, rel-(2R,3S)-3,4-dihydro-6-trifluoromethoxy-2-(trifluoromethyl)-2H-1-benzopyran-3-carboxylic acid] | 120.1 to 120.8 °C | 6.40 | < 4.00 | 6.22 | 4.19 |  |  |
| O=C(O)[C@@H]1Cc2cc(Cl)cc(Cl)c2S[C@@H]1C(F)(F)F (relative stereo) [Example 1, rel-(2R, 3S)-6,8-dichloro-3,4-dihydro-2-(trifluoromethyl)-2H-1-benzothiopyran-3-carbolic acid] |  | 6.52 | 6.22 | 6.22 | 6.22 |  |  |
| CC(C)(C)c1cc2c(cc1Cl)C[C@@H](C(=O)O)[C@@H](C(F)(F)F)O2 [Example 4, (2S,3R)-6-chloro-3,4-dihydro-7-(1,1-dimethylethyl)-2-(trifluoromethyl)-2H-1-benzopyran-3-carboxylic acid] | 115.8 to 120.9 °C | < 4.00 | 4.92 | 5.80 | 5.89 |  |  |
| O=C(O)[C@@H]1Cc2cc(Cl)ccc2N[C@@H]1C(F)(F)F [Example 6, (2S,3R)-6-Chloro-1,2,3,4-tetrahydro-2-(trifluoromethyl)-3-quinolinecarboxylic acid] | 154.4 to 154.5 °C | 4.60 | < 4.00 | 5.59 | < 4.00 |  |  |

More lines, main results first:

| melting point | pIC50 (COX-2 [1]) | pIC50 (COX-1 [2]) | pIC50 (COX-2 [3]) | pIC50 (COX-1 [4]) | SMILES | ANALGESIA % Inhibition @ 30 mg/kg body weight (Analgesia (Table I)) | RAT PAW EDEMA % Inhibition @ 30 mg/kg body weight (carrageenan foot edema) |
| --- | --- | --- | --- | --- | --- | --- | --- |
| 173 to 174.4 °C | 6.70 | < 4.00 | 6.70 | 5.24 | O=C(O)[C@@H]1Cc2c(ccc(Cl)c2Cl)O[C@@H]1C(F)(F)F (racemic) [Example 3, rel-(2R, 3S)-5,6-dichloro-3,4-dihydro-2-(trifluoromethyl)-2H-1-benzopyran-3-carboxylic acid] |  |  |
| 207.3 to 208.5 °C | 6.40 | < 4.00 | 6.40 | < 4.00 | O=C(O)[C@@H]1Cc2c(cc(Cl)c(Cl)c2Cl)O[C@@H]1C(F)(F)F (racemic) [Example 5, rel-(2R,3S)-3,4-dihydro-5,6,7-trichloro-2-(trifluoromethyl)-2H-1-benzopyran-3-carboxylic acid] |  |  |
| 205.2 to 208.1 °C | 6.15 | < 4.00 | 6.22 | 4.27 | O=C(O)[C@@H]1Cc2cc(Cl)c(Cl)c(Cl)c2O[C@@H]1C(F)(F)F (racemic) [Example 7, rel-(2R, 3S)-3,4-dihydro-6,7,8-trichloro-2-(trifluoromethyl)-2H-1-benzopyran-3-carboxylic acid] |  |  |
| 185.7 to 188.9 °C | 5.70 | 4.66 | 5.64 | 5.06 | O=C(O)[C@@H]1Cc2c(Cl)ccc(Cl)c2O[C@@H]1C(F)(F)F (racemic) [Example 8, rel-(2R,3S)-5,8-dichloro-3,4-dihydro-2-(trifluoromethyl)-2H-1-benzopyran-3-carboxylic acid] |  |  |
| 100.3 to 101.1 °C | 6.70 | 5.55 | 6.52 | 6.00 | O=C(O)[C@@H]1Cc2cc(Cl)cc(Cl)c2O[C@@H]1C(F)(F)F [Example 2, (2S,3R)-6,8-dichloro-3,4-dihydro-2-(trifluoromethyl)-2H-1-benzopyran-3-carboxylic acid] | 56% | 52% |
| 118.1 to 119.2 °C | 4.54 | < 4.00 | 6.30 | < 4.00 | O=C(O)[C@@H]1Cc2cc(Cl)ccc2O[C@@H]1C(F)(F)F [Example 9, (2S,3R)-6-chloro-3,4-dihydro-2-(trifluoromethyl)-2H-1-benzopyran-3-carboxylic acid] |  |  |
